Data as given in patent US20250388542A1, “ANALOGUES OF PENTAMIDINE AND USES THEREFOR” (Auransa Inc., priority 2018, published 2025).

Experiments:
Assay in all cases: CellTiter-Glo cytotoxicity, cancer cell line panel
Format in all cases: cell-based
769-P = conditions: Homo sapiens, Renal cell carcinoma
Description: (§1) The objective of this study is to investigate potential cell killing effect of Compounds 1-15 on 3 cancer cell lines. 50% inhibition concentration (IC50) was determined for these compounds in various cancer cell lines using CellTiter-Glo™ luminescent cell viability assay at different compound concentrations. Each cell line (e.g., NCI-H209; NCI-H69; and SW1271) was treated with Compounds 1-15 and culture medium contains 0.2% [v/v] DMSO vehicle control. All the cells were cultured in the media supplemented with 10-20% fetal bovine serum at 37° C., 5% CO2 and 95% humidity.
(§2) The objective of this study is to investigate the effect of Compound 1 on cytotoxicity against 61 different types of cancer cell lines. IC50 were values were obtained using CellTiter-Glo™ as described above. Each cell line shown in Table 3 was treated with Compound 1, a standard chemotherapy drug, cisplatin, as reference control and culture medium contains 0.2% [v/v] DMSO vehicle control. All cancer cell lines were cultured in media supplemented with 10-20% fetal bovine serum at 37° C., 5% CO2 and 95% humidity.

786-O = conditions: Homo sapiens, 786-0, Renal cell carcinoma
Description: as §1, §2

BT-474 = conditions: Homo sapiens; BT-474, Invasive ductal carcinoma
Description: as §1, §2

Caki-2 = conditions: Homo sapiens; Caki-2, Papillary renal cell carcinoma
Description: as §1, §2

HCCC-9810 = conditions: HCCC9810; HCCC-9810, Intrahepatic cholangiocarcinoma
Description: as §1, §2

HCCLM3 = conditions: Homo sapiens; HCCLM3, Hepatocellular carcinoma
Description: as §1, §2

HLF = conditions: Hepatocellular carcinoma
Description: as §1, §2

Hep G2/C3A = conditions: HepG2/C3A, Hepatoblastoma carcinoma
Description: as §1, §2

Hep G2 = conditions: Homo sapiens, HepG2; Hep G2, Hepatoblastoma carcinoma
Description: as §1, §2

HuCCT1 = conditions: Homo sapiens, HuCCT-1; HuCCT1, Intrahepatic cholangiocarcinoma
Description: as §1, §2

JHH-1 = conditions: JHH1; JHH-1, Hepatocellular carcinoma
Description: as §1, §2

JHH-6 = conditions: JHH-6, Hepatocellular carcinoma
Description: as §1, §2

JHH-7 = conditions: JHH7; JHH-7, Hepatocellular carcinoma
Description: as §1, §2

LNCaP clone FGC = conditions: Homo sapiens, Prostate carcinoma
Description: as §1, §2

MHCC97-H = conditions: Homo sapiens, MHCC97H, Hepatocellular carcinoma
Description: as §1, §2

NCI-H1975 = conditions: Homo sapiens; NCI-H1975, Lung adenocarcinoma
Description: as §1, §2

NCI-H460 = conditions: Homo sapiens; NCI-H460, Large cell lung carcinoma
Description: as §1, §2

NOZ = conditions: Gallbladder carcinoma
Description: as §1, §2

OCUG-1 = conditions: OCUG-1, Gallbladder carcinoma
Description: as §1, §2

OVCAR-3 = conditions: Homo sapiens; OVCAR-3, High grade ovarian serous adenocarcinoma
Description: as §1, §2

OZ = conditions: Intrahepatic cholangiocarcinoma
Description: as §1, §2

PLC/PRF/5 = conditions: Homo sapiens; PLC/PRF/5, Hepatocellular carcinoma
Description: as §1, §2

RBE = conditions: Intrahepatic cholangiocarcinoma
Description: as §1, §2

SF268 = conditions: Homo sapiens, SF-268; SF268, Astrocytoma
Description: as §1, §2

SK-HEP-1 = conditions: Homo sapiens, SK-HEP1; SK-HEP-1, Hepatocellular carcinoma
Description: as §1, §2

SK-NEP-1 = conditions: Homo sapiens; SK-NEP-1, Ewing sarcoma
Description: as §1, §2

SNU-354 = conditions: Homo sapiens; SNU-354, Hepatocellular carcinoma
Description: as §1, §2

SNU-368 = conditions: SNU-368, Hepatocellular carcinoma
Description: as §1, §2

SNU-387 = conditions: Homo sapiens; SNU-387, Hepatocellular carcinoma
Description: as §1, §2

SNU-423 = conditions: Homo sapiens; SNU-423, Hepatocellular carcinoma
Description: as §1, §2

SNU-449 = conditions: Homo sapiens; SNU-449, Hepatocellular carcinoma
Description: as §1, §2

SNU-475 = conditions: Homo sapiens; SNU-475, Hepatocellular carcinoma
Description: as §1, §2

SNU-739 = conditions: SNU-739, Hepatocellular carcinoma
Description: as §1, §2

SNU-761 = conditions: SNU-761, Hepatocellular carcinoma
Description: as §1, §2

Saos-2 = conditions: Homo sapiens; Saos-2, Osteosarcoma
Description: as §1, §2

UO.31 = conditions: Homo sapiens; UO.31, Renal cell carcinoma
Description: as §1, §2

Compound: N=C(N)c1ccc(OCCCCCOc2ccc(C(=N)N)nc2)cc1 [Compound 1, 5-(5-(4-carbamimidoylphenoxy)pentyloxy)picolinimidamide]
- IC50 (769-P): 1630 nM
- IC50 (786-O): 9.63 µM
- IC50 (BT-474): 15.7 µM
- IC50 (Caki-2): 4.18 µM
- IC50 (HCCC-9810): 710 nM
- IC50 (HCCLM3): 12.2 µM
- IC50 (HLF): 2040 nM
- IC50 (Hep G2/C3A): 230 nM
- IC50 (Hep G2): 340 nM
- IC50 (HuCCT1): 8.01 µM
- IC50 (JHH-1): 3.87 µM
- IC50 (JHH-6): 380 nM
- IC50 (JHH-7): 500 nM
- IC50 (LNCaP clone FGC): 1780 nM
- IC50 (MHCC97-H): 8.31 µM
- IC50 (NCI-H1975): 2660 nM
- IC50 (NCI-H460): 520 nM
- IC50 (NOZ): 2540 nM
- IC50 (OCUG-1): 2890 nM
- IC50 (OVCAR-3): 1960 nM
- IC50 (OZ): 9.39 µM
- IC50 (PLC/PRF/5): 4.13 µM
- IC50 (RBE): 1400 nM
- IC50 (SF268): 750 nM
- IC50 (SK-HEP-1): 4.72 µM
- IC50 (SK-NEP-1): 1930 nM
- IC50 (SNU-354): 840 nM
- IC50 (SNU-368): 360 nM
- IC50 (SNU-387): 4 µM
- IC50 (SNU-423): 1750 nM
- IC50 (SNU-449): 1570 nM
- IC50 (SNU-475): 1250 nM
- IC50 (SNU-739): 2230 nM
- IC50 (SNU-761): 3.31 µM
- IC50 (Saos-2): 2390 nM
- IC50 (UO.31): 3.47 µM
